Assay results published in patent US20190175691A1, “METHODS FOR DETECTING AND MODULATING THE EMBRYONIC-FETAL TRANSITION IN MAMMALIAN SPECIES” (BioTime, Inc., priority 2016, published 2019).
Starred links: 1 amine or outer side, 2 acyl side, 3 side chain; linkers in the order of their positions; H or OH if unused. Positions of bridges follow the written chain, without caps; N, C: chain ends. Non-standard residues stand in square brackets, D forms with d. Residues, ends and D or L forms follow the SMILES beside them. Chains are numbered I, II in the order given. Actinocin(9to1) = Cc1c2oc3c(C)ccc(C(=O)[*:1])c3nc-2c(C(=O)[*:2])c(N)c1=O; NMeV = CN[C@H](C(=O)O)C(C)C; Sar = CNCC(=O)O

system: COX7A1 transcript; assay: Screen for iTR factors: reduction of COX7A1 transcript in cancer cell lines; format: cell-based; conditions: Lung (A549), breast (MCF7), and prostate (PC3) cancer cell lines
Source text: Values under cell lines represent proportional decreased values for COX7A1 transcript in the cell line.
Lung (A549), breast (MCF7), and prostate (PC3) cancer cell lines were exposed to diverse factors including biologically active small molecules as well as RNAi directed to specific genes and the relative reduction of levels of COX7A1 transcript was used as a marker of iTR.

| Molecule | COX7A1 expression (relative reduction of COX7A1 transcript as marker of iTR) |
| --- | --- |
| CCn1cc(-c2ccnc3[nH]c(-c4cccc(CN(C)C)c4)cc23)c(-c2ccc(NC(=O)N(C)C)cc2)n1 [GSK1070916] | reduce COX7A1 expression |
| O=C(O)[C@]1(Cc2cccc(Nc3nccs3)n2)CC[C@@H](Oc2cccc(Cl)c2F)CC1 [MK-5108] | reduce COX7A1 expression |
| CO[C@H]1/C=C\C=C(/C)C(=O)NC2=CC(=O)C(NCCN(C)C)=C(C[C@@H](C)C[C@H](OC)[C@H](O)[C@@H](C)/C=C(\C)[C@@H]1OC(N)=O)C2=O [alvespimycin] | reduce COX7A1 expression |
| COc1cc(/C=C/C(=O)CC(=O)/C=C/c2ccc(O)c(OC)c2)ccc1O [curcumin] | reduce COX7A1 expression |
| C[C@@H]1C[C@H]2O[C@@H]2/C=C\C=C\C(=O)Cc2c(Cl)c(O)cc(O)c2C(=O)O1 [radicocol] | reduce COX7A1 expression |

system: COX7A1 transcript; assay: Screen for iCM factors: increase of COX7A1 transcript in cancer cell lines; format: cell-based; conditions: Lung (A549), breast (MCF7), and prostate (PC3) cancer cell lines
Source text: Lung (A549), breast (MCF7), and prostate (PC3) cancer cell lines were exposed to diverse factors including biologically active small molecules as well as RNAi directed to specific genes and the relative increase in levels of COX7A1 transcript was used as a marker of iCM.

| Molecule | COX7A1 expression (relative increase of COX7A1 transcript as marker of iCM) |
| --- | --- |
| CC[C@@H]1C(=O)N(C)c2cnc(Nc3ccc(C(=O)NC4CCN(C)CC4)cc3OC)nc2N1C1CCCC1 [BI 2536] | increased COX7A1 expression |
| CCc1c2c(nc3ccc(O)cc13)-c1cc3c(c(=O)n1C2)COC(=O)[C@]3(O)CC [SN-38] | increased COX7A1 expression |
| CN1CC[C@H](c2c(O)cc(O)c3c(=O)cc(-c4ccccc4Cl)oc23)[C@H](O)C1 [alvocidib] | increased COX7A1 expression |
| CC1(C)[C@@H](OC(=O)CCC(=O)O)CC[C@]2(C)[C@H]3C(=O)C=C4[C@@H]5C[C@@](C)(C(=O)O)CC[C@]5(C)CC[C@@]4(C)[C@]3(C)CC[C@@H]12 [carbenoxolone] | increased COX7A1 expression |
| Cc1c2oc3c(C)ccc(C(=O)N[C@@H]4C(=O)N[C@H](C(C)C)C(=O)N5CCC[C@H]5C(=O)N(C)CC(=O)N(C)[C@@H](C(C)C)C(=O)O[C@@H]4C)c3nc-2c(C(=O)N[C@@H]2C(=O)N[C@H](C(C)C)C(=O)N3CCC[C@H]3C(=O)N(C)CC(=O)N(C)[C@@H](C(C)C)C(=O)O[C@@H]2C)c(N)c1=O [dactinomycin] (I: T[dV]P[Sar][NMeV] / II: T[dV]P[Sar][NMeV]; ester I:1-I:C, II:1-II:C; linker I:N-II:N via Actinocin(9to1)) | increased COX7A1 expression |
| COc1cccc2c1C(=O)c1c(O)c3c(c(O)c1C2=O)C[C@@](O)(C(C)=O)C[C@@H]3O[C@H]1C[C@H](N)[C@H](O)[C@H](C)O1 [daunorubicin] | increased COX7A1 expression |
| COc1cccc2c1C(=O)c1c(O)c3c(c(O)c1C2=O)C[C@@](O)(C(=O)CO)C[C@@H]3O[C@H]1C[C@H](N)[C@H](O)[C@H](C)O1 [doxorubicin] | increased COX7A1 expression |
| Cc1onc(-c2c(F)cccc2Cl)c1C(=O)N[C@@H]1C(=O)N2[C@@H]1SC(C)(C)[C@@H]2C(=O)O [flucloxacillin] | increased COX7A1 expression |
| COc1cc2ncnc(Nc3ccc(F)c(Cl)c3)c2cc1OCCCN1CCOCC1 [gefitinib] | increased COX7A1 expression |
| CCN(CC)Cc1ccc2cc(COC(=O)Nc3ccc(C(=O)NO)cc3)ccc2c1 [givinostat] | increased COX7A1 expression |
| O=C1c2c(O)ccc(O)c2C(=O)c2c(NCCNCCO)ccc(NCCNCCO)c21 [mitoxantrone] | increased COX7A1 expression |
| CN[C@@H]1C[C@H]2O[C@@](C)([C@@H]1OC)n1c3ccccc3c3c4c(c5c6ccccc6n2c5c31)C(=O)NC4 [staurosporine] | increased COX7A1 expression |
| COc1cc([S+](C)[O-])ccc1-c1nc2ncccc2[nH]1 (stereo not shown) [sulmazole] | increased COX7A1 expression |
| COc1cc([C@@H]2c3cc4c(cc3[C@@H](O[C@@H]3O[C@@H]5CO[C@@H](c6cccs6)O[C@H]5[C@H](O)[C@H]3O)[C@H]3COC(=O)[C@H]23)OCO4)cc(OC)c1O [teniposide] | increased COX7A1 expression |
| CC(/C=C/C(=O)NO)=C\[C@@H](C)C(=O)c1ccc(N(C)C)cc1 [trichostatin-A] | increased COX7A1 expression |
| CC(C)[C@]12O[C@H]1[C@@H]1O[C@]13[C@]1(O[C@H]1C[C@H]1C4=C(CC[C@@]13C)C(=O)OC4)[C@@H]2O [triptolide] | increased COX7A1 expression |
| calyculin | increased COX7A1 expression |

system: adult-derived MDW fibroblasts; assay: Scratch test on confluent MDW fibroblast monolayer; format: cell-based; conditions: MDW passage 5, 1.5 mm scratch, 24 hours; 0.5 mM valproic acid, 10 ng/mL AMH, 20 ng/mL GFER; control 20%
Protocol: The identification of the secreted protein iTR factors GFER and AMH as well as the agent valproic acid, provides a novel cocktail of factors to generate iTR in vitro as well as in vivo. To determine the effects of the factors, cultured adult-derived MDW fibroblasts as well as umbilical cord-derived MSCs (MSCwj) were treated with varying concentrations of the factors and the rate of growth and regrowth following a scratch test are performed.
(§1) The fibroblast line MDW (passage 5) is seeded in multiple wells of a 6 well plate and cultured to confluence. A 1.5 mm “scratch” was introduced onto the monolayer using a 200 ul pipette tip, thereby denuding the fibroblasts from the culture surface. Factors including 0.5 mM valproic acid, 10 ng/mL AMH, and 20 ng/mL GFER are added to the growth medium which as DMEM medium supplemented with 10% FBS. 24 hours later, the % of the denuded surface was determined by phase contrast microscopy. […] Due to the lability and diffusion of the factors when administered in vivo, the formulation of the factors alone or in combination in a hydrogel such as crosslinked hyaluronic acid or crosslinked hyaluronic acid and collagen provides a preferred method of delivering the factors to increase tissue regeneration in animals. Alternatively, umbilical cord-derived MSCs (MSCwj) and adult skin fibroblasts (MDW) each of which express fetal/adult markers such as COX7A1 are treated with the secreted form of GFER alone at concentrations of 0, 10.0 and 100 ng/mL in DMEM medium supplemented with 10% FBS an AMH

| Molecule | regeneration (coverage of the denuded wounded zone) [%] |
| --- | --- |
| CCCC(CCC)C(=O)O [valproic acid] | 25 |
| GFER: GFER (Augmenter of Liver Regeneration (ALR)), secreted protein iTR factor | 28 |
| AMH: anti-Mullerian hormone (AMH), secreted protein iTR factor (protein, UniProt P03971 452-560, looked up) Muellerian-inhibiting factor: SAGATAADGPCALRELSVDLRAERSVLIPETYQANNCQGVCGWPQSDRNPRYGNHVVLLLKMQVRGAALARPPCCVPTAYAGKLLISLSEERISAHHVPNMVATECGCR | 68 |

system: umbilical cord-derived MSCs (MSCwj) and adult skin fibroblasts (MDW); assay: Percent confluency after 80 hours with secreted GFER; format: cell-based; conditions: secreted GFER 0, 10.0 and 100 ng/mL, DMEM 10% FBS
Protocol: as §1
d cultured for 80 hours and the % confluency is determined.

| Molecule | confluency achieved |
| --- | --- |
| GFER: GFER (Augmenter of Liver Regeneration (ALR)), secreted protein iTR factor | dose-dependent increase in confluency |

system: MDW adult-derived skin fibroblasts; assay: Illumina bead array expression of COX7A1 and COL1A1 in MDW fibroblasts; format: cell-based; conditions: MDW passage 6-7, 6 days, mRNA for cMYC or SOX2 + 0.5 mM valproic acid

| Molecule | expression of COX7A1 | expression of the fibrosis marker COL1A1 |
| --- | --- | --- |
| CCCC(CCC)C(=O)O [valproic acid] | reduced expression of COX7A1 | decreased expression of the fibrosis marker COL1A1 |
